Assay results published in patent US20110053897A1 (IRM LLC, priority 2009, published 2011).

Target: T1, Syk kinase (Homo sapiens, UniProt P43405)
T1 construct: purchased
Test: Syk kinase inhibition, Caliper LabChip off-chip mobility-shift kinase assay
Type: biochemical
Details: Caliper LabChip assay; read-out: Syk Enzyme IC50
How it was run: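 Purified Syk pre-incubated 15 min with compound in 100 mM HEPES pH 7.5, 1 mM DTT, 10 mM MgCl2 or MnCl2, 0.002% Brij-35, then 1.5 μM fluorescein peptide and ATP at apparent KM added; 1–1.5 h at room temperature, 4% DMSO, EDTA stop. Microfluidic mobility-shift product/substrate conversion gave % inhibition; IC50 from 12-point series (10–0.00003 μM) by 4-parameter fit.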

| SMILES | IC50 |
| --- | --- |
| CC1(Nc2nc(Nc3cc(C(O)C(F)(F)F)ccn3)cc3ccn(CC(N)=O)c(=O)c23)CC1 (stereo not shown) [compound 614] | 66 nM |
| CC1(Nc2nc(Nc3cc(C4(O)COC4)ccn3)cc3ccn(CC(N)=O)c(=O)c23)CC1 [compound 617] | 64 nM |
| CC1(Nc2nc(Nc3cc(C(C)(C)O)ncn3)cc3ccn(CC(N)=O)c(=O)c23)CC1 [compound 620] | 148 nM |

More lines, now with the values ahead:

| IC50 | SMILES |
| --- | --- |
| 81 nM | CC[C@@H](CO)Nc1nc(Nc2cc(C)ccn2)cc2ccn(CC)c(=O)c12 [compound 597] |
| 518 nM | CC[C@H](CO)Nc1nc(Nc2cc(C)ccn2)cc2ccn(CC)c(=O)c12 [compound 598] |
| 286 nM | Cc1ccnc(Nc2cc3ccn(CCO)c(=O)c3c(NC3(C)CCC3)n2)c1 [compound 599] |
| 56 nM | CC(C)(C)Nc1nc(Nc2cc(CN3CCOCC3)ccn2)cc2ccn(CCO)c(=O)c12 [compound 603] |
| 251 nM | CC(C)(C)Nc1nc(Nc2cc(CN3CCCCC3)ccn2)cc2ccn(CCO)c(=O)c12 [compound 604] |
| 216 nM | CC(C)(C)Nc1nc(Nc2cc(CNC3COC3)ccn2)cc2ccn(CCO)c(=O)c12 [compound 605] |
| < 5.65 nM | CC(C)(C)Nc1nc(Nc2cc(CNCCO)ccn2)cc2ccn(CCO)c(=O)c12 [compound 608] |
| 370 nM | CC1(O)CN(Cc2cc(Nc3cc4ccn(CCO)c(=O)c4c(NC(C)(C)C)n3)ncc2F)C1 [compound 610] |
| 251 nM | CC(C)(C)Nc1nc(Nc2cc(CN3CC(O)C3)c(F)cn2)cc2ccn(CCO)c(=O)c12 [compound 611] |
| 453 nM | CC(C)(C)Nc1nc(Nc2cc(C(O)CN)ccn2)cc2ccn(CCO)c(=O)c12 (stereo not shown) [compound 612, 6-(4-(2-amino-1-hydroxyethyl)pyridin-2-ylamino)-8-(tert-butylamino)-2-(2-hydroxyethyl)-2,7-naphthyridin-1(2H)-one] |
| 142 nM | CC(C)(C)Nc1nc(Nc2cc(C(O)C(F)(F)F)ccn2)cc2ccn(CC(N)=O)c(=O)c12 (stereo not shown) [compound 613] |
| 9 nM | CC(C)(C)Nc1nc(Nc2cc(C(F)F)ccn2)cc2ccn(CCO)c(=O)c12 [compound 615] |
| 1350 nM | CC(C)(C)Nc1nc(Nc2cc(C(C)(C)C)ccn2)cc2ccn(CCO)c(=O)c12 [compound 616] |
| 121 nM | C=Cc1cc(Nc2cc3ccn(CCO)c(=O)c3c(NC(C)(C)C)n2)ncn1 [compound 618, 8-(tert-butylamino)-2-(2-hydroxyethyl)-6-(6-vinylpyrimidin-4-ylamino)-2,7-naphthyridin-1(2H)-one] |
| 102 nM | CCc1cc(Nc2cc3ccn(CCO)c(=O)c3c(NC(C)(C)C)n2)ncn1 [compound 619, 8-(tert-butylamino)-6-(6-ethylpyrimidin-4-ylamino)-2-(2-hydroxyethyl)-2,7-naphthyridin-1(2H)-one] |
| 94 nM | COC/C=C/c1cc(Nc2cc3ccn(CCO)c(=O)c3c(NC(C)(C)C)n2)ncn1 [compound 621] |
| 85 nM | COCCCc1cc(Nc2cc3ccn(CCO)c(=O)c3c(NC(C)(C)C)n2)ncn1 [compound 622] |
| 612 nM | CC(C)(C)Nc1nc(Nc2cc(C3=CCCCC3)ncn2)cc2ccn(CCO)c(=O)c12 [compound 623] |
| 590 nM | CC(C)(C)Nc1nc(Nc2cc(C3=CCCCO3)ncn2)cc2ccn(CCO)c(=O)c12 [compound 624] |
| 452 nM | CC(C)(C)Nc1nc(Nc2cc(C3CCCCC3)ncn2)cc2ccn(CCO)c(=O)c12 [compound 625] |
| 756 nM | CC(C)(C)Nc1nc(Nc2cc(C3CCCCO3)ncn2)cc2ccn(CCO)c(=O)c12 (stereo not shown) [compound 626] |
| 60 nM | CC(C)(C)Nc1nc(Nc2cc(/C=C/CCO)ncn2)cc2ccn(CCO)c(=O)c12 [compound 627] |
| 62 nM | CC(C)(C)Nc1nc(Nc2cc(CCCCO)ncn2)cc2ccn(CCO)c(=O)c12 [compound 629] |

Same assay, conditions: read-out: Syk Enzyme IC50

| SMILES | IC50 |
| --- | --- |
| Cc1ccc(Nc2cc3cc[nH]c(=O)c3c(Nc3ccc(N4CCOCC4)cc3)n2)nc1 [compound 545] | 3850 nM |
| CCc1ccnc(Nc2cc3cc[nH]c(=O)c3c(Nc3ccc(CCN4CCN(CC)CC4)cc3)n2)c1 [compound 546] | 88 nM |
| [2H]C([2H])([2H])n1ccc2cc(Nc3cc(C)c(F)cn3)nc(NC3CC3)c2c1=O [compound 547] | 415 nM |
| [2H]C([2H])([2H])n1ccc2cc(Nc3cc(C)c(Cl)cn3)nc(NC3CC3)c2c1=O [compound 548] | 468 nM |
| Cc1ccnc(Nc2cc3cc[nH]c(=O)c3c(NC3CCN(C)CC3)n2)c1 [compound 550] | 111 nM |
| CCN1CCN(CCc2ccc(Nc3nc(Nc4ccccn4)cc4cc[nH]c(=O)c34)cc2)CC1 [compound 551] | 200 nM |
| Cc1ccc(Nc2cc3cc[nH]c(=O)c3c(Nc3ccc(CCN4CCCN(C)CC4)cc3)n2)nc1 [compound 552] | 390 nM |
| Cc1ccnc(Nc2cc3cc[nH]c(=O)c3c(NC3CCN(Cc4ccccc4)C3)n2)c1 (stereo not shown) [compound 553] | 550 nM |
| Cc1ccnc(Nc2cc3cc[nH]c(=O)c3c(NCC3CCNCC3)n2)c1 [compound 554] | 86 nM |
| CCN1CCN(CCc2ccc(Nc3nc(Nc4ccc(C(F)(F)F)cn4)cc4cc[nH]c(=O)c34)cc2)CC1 [compound 556] | 631 nM |
| Cc1cc(Nc2nc(Nc3ccc(C#N)cn3)cc3cc[nH]c(=O)c23)ccc1N1CCO[C@H](C)C1 [compound 557] | 3350 nM |
| Cc1ccc(Nc2cc3cc[nH]c(=O)c3c(Nc3ccc(C4CCN(CC(N)=O)CC4)c(C)c3)n2)nc1 [compound 558] | 489 nM |
| NC(=O)c1ccnc(Nc2cc3cc[nH]c(=O)c3c(NC3CC3)n2)c1 [compound 559] | 292 nM |
| CC(C)Nc1nc(Nc2ccc(Cl)cn2)cc2cc[nH]c(=O)c12 [compound 560] | 611 nM |
| Cc1ccnc(Nc2cc3cc[nH]c(=O)c3c(NCCO)n2)c1 [compound 561] | 501 nM |
| Cc1ccnc(Nc2cc3cc[nH]c(=O)c3c(NCCC3CCCN3C)n2)c1 (stereo not shown) [compound 562] | 288 nM |
| CCN1CCN(CCc2ccc(Nc3nc(Nc4ccc(C)cn4)cc4cc[nH]c(=O)c34)cc2)CC1 [compound 563] | 430 nM |
| CCN1CCN(CCc2ccc(Nc3nc(Nc4ccc(C#N)cn4)cc4cc[nH]c(=O)c34)cc2)CC1 [compound 564] | 385 nM |
| O=c1[nH]ccc2cc(Nc3ccc([N+](=O)[O-])cn3)nc(Nc3ccc(N4CCOCC4)cc3)c12 [compound 565] | 710 nM |
| CCNc1nc(Nc2cc(C)ccn2)cc2cc[nH]c(=O)c12 [compound 566] | 803 nM |
| Cc1ccnc(Nc2cc3c(F)cn(C)c(=O)c3c(NC(C)C)n2)c1 [compound 567] | 978 nM |
| O=c1[nH]ccc2cc(Nc3ccc(CCN4CCOCC4)cn3)nc(Nc3ccc(N4CCOCC4)cc3)c12 [compound 568] | 549 nM |
| Cc1ccnc(Nc2cc3ccn(C)c(=O)c3c(Nc3cc(C)ccn3)n2)c1 [compound 569] | 701 nM |

| SMILES | IC50 |
| --- | --- |
| CC(C)Nc1nc(Nc2ccc(C#N)cn2)cc2cc[nH]c(=O)c12 [compound 570] | 377 nM |
| Cn1ccc2cc(Nc3ccccn3)nc(N)c2c1=O [compound 572] | 3270 nM |
| Cn1ccc2cc(Nc3ccc(C#N)cn3)nc(N)c2c1=O [compound 573] | 3870 nM |
| Cn1ccc2cc(Nc3ccc(C(N)=O)cn3)nc(N)c2c1=O [compound 574] | 142 nM |
| CCCNC(=O)c1ccc(Nc2cc3ccn(C)c(=O)c3c(N)n2)nc1 [compound 575] | 2610 nM |
| O=c1[nH]ccc2cc(Nc3ccc(F)cn3)nc(Nc3ccc(N4CCOCC4)cc3)c12 [compound 576] | 4870 nM |
| O=c1[nH]ccc2cc(Nc3ccc(C(F)(F)F)cn3)nc(Nc3ccc(N4CCOCC4)cc3)c12 [compound 577] | 760 nM |
| CCOC(=O)c1ccc(Nc2cc3cc[nH]c(=O)c3c(Nc3ccc(N4CCOCC4)cc3)n2)nc1 [compound 578] | 186 nM |
| CCN1CCN(CCc2ccc(Nc3nc(Nc4ccc(C(N)=O)cn4)cc4cc[nH]c(=O)c34)cc2)CC1 [compound 579] | 113 nM |
| CCN1CCN(CCc2ccc(Nc3nc(Nc4ccc(F)cn4)cc4cc[nH]c(=O)c34)cc2)CC1 [compound 580] | 163 nM |
| CCN1CCN(CCc2ccc(Nc3nc(Nc4ccc(C(=O)O)cn4)cc4cc[nH]c(=O)c34)cc2)CC1 [compound 581] | 16 nM |
| Cc1ccc(Nc2cc3cc[nH]c(=O)c3c(Nc3ccc(N4CCO[C@H](C)C4)c(C)c3)n2)nc1 [compound 582] | 2220 nM |
| Cc1cc(Nc2nc(Nc3ccc(C(F)(F)F)cn3)cc3cc[nH]c(=O)c23)ccc1N1CCO[C@H](C)C1 [compound 583] | 8440 nM |
| Cc1ccnc(Nc2cc3cc[nH]c(=O)c3c(Nc3ccc(N4CCO[C@H](C)C4)c(C)c3)n2)c1 [compound 584] | 2680 nM |
| CCN1CCN(CCc2ccc(Nc3nc(Nc4cc(C)ccn4)cc4cc[nH]c(=O)c34)cc2)CC1 [compound 585] | 81 nM |
| CCN1CCN(CCc2ccc(Nc3nc(Nc4cc(C(=O)O)ccn4)cc4cc[nH]c(=O)c34)cc2)CC1 [compound 586] | 226 nM |
| CC(C)Nc1nc(Nc2cc(C(=O)O)ccn2)cc2cc[nH]c(=O)c12 [compound 587] | 226 nM |
| Cc1ccnc(Nc2cc3cc[nH]c(=O)c3c(NCCN(C)C)n2)c1 [compound 588] | 1960 nM |
| CCN1CCC[C@@H]1CNc1nc(Nc2cc(C)ccn2)cc2cc[nH]c(=O)c12 [compound 589] | 5560 nM |
| CCN1CCC[C@H]1CNc1nc(Nc2cc(C)ccn2)cc2cc[nH]c(=O)c12 [compound 590] | 3500 nM |
| Cc1ccnc(Nc2cc3cc[nH]c(=O)c3c(NCc3ccccc3)n2)c1 [compound 591] | 5680 nM |
| CC(C)Nc1nc(Nc2cc(-c3cnn(C)c3)ccn2)cc2cc[nH]c(=O)c12 [compound 595] | 87.9 nM |

Other lines, results leading:

| IC50 | SMILES |
| --- | --- |
| 962 nM | CCn1ccc2cc(Nc3cc(Cl)ccn3)nc(NCC(F)(F)F)c2c1=O [compound 592] |
| 271 nM | O=c1c2c(NCC(F)(F)F)nc(Nc3cc(Cl)ccn3)cc2ccn1CCO [compound 593] |
